Assay results published in paper PMC6364417, “Kinase inhibitor library screening identifies synergistic drug combinations effective in sensitive and resistant melanoma cells” (Journal of Experimental & Clinical Cancer Research : CR, 2019).

What was measured:
Assay in all cases: Kinase inhibitor library screening, PrestoBlue cell viability, 1 or 10 μM, 72 h
[1] = tested on: 501Mel-GP cells (Dabrafenib-resistant); settings: for viability at 1 µM / viability at 10 µM: Homo sapiens; for viability at 1 µM: read-out: cell viability, 501Mel GP, 1μΜ; for viability at 10 µM: read-out: cell viability, 501Mel GP, 10μΜ
IGR37 cells (parental) = settings: for viability at 1 µM / viability at 10 µM: Homo sapiens, IGR-37, 72 h; for viability at 1 µM: read-out: cell viability, IGR37 Parental, 1μΜ; for viability at 10 µM: read-out: cell viability, IGR37 Parental, 10μΜ
[2] = tested on: IGR37-GP cells (Dabrafenib-resistant); settings: for viability at 1 µM / viability at 10 µM: Homo sapiens, IGR-37, 72 h; for viability at 1 µM: read-out: cell viability, IGR37 GP, 1μΜ; for viability at 10 µM: read-out: cell viability, IGR37 GP, 10μΜ
A375 cells (parental) = settings: for viability at 1 µM / viability at 10 µM: Homo sapiens, A-375, 72 h; for viability at 1 µM: read-out: cell viability, A375 Parental, 1μΜ; for viability at 10 µM: read-out: cell viability, A375 Parental, 10μΜ
[3] = tested on: IGR37-XP cells (Vemurafenib-resistant); settings: for viability at 1 µM / viability at 10 µM: Homo sapiens, IGR-37, 72 h; for viability at 1 µM: read-out: cell viability, IGR37 XP, 1μΜ; for viability at 10 µM: read-out: cell viability, IGR37 XP, 10μΜ
[4] = tested on: 501Mel-XP cells (Vemurafenib-resistant); settings: for viability at 1 µM / viability at 10 µM: Homo sapiens; for viability at 1 µM: read-out: cell viability, 501Mel XP, 1μΜ; for viability at 10 µM: read-out: cell viability, 501Mel XP, 10μΜ
501Mel cells (parental) = settings: for viability at 1 µM / viability at 10 µM: Homo sapiens; for viability at 1 µM: read-out: cell viability, 501Mel Parental, 1μΜ; for viability at 10 µM: read-out: cell viability, 501Mel Parental, 10μΜ
Outline: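 Cells are treated with each inhibitor at 1 or 10 μM, incubated 72 h, then PrestoBlue reagent is added and the plate is read. Data are normalised to untreated cells.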

[5] = tested on: A375-XP cells (Vemurafenib-resistant); settings: for viability at 1 µM / viability at 10 µM: Homo sapiens, A-375, 72 h; for viability at 1 µM: read-out: cell viability, A375 XP, 1μΜ; for viability at 10 µM: read-out: cell viability, A375 XP, 10μΜ
[6] = tested on: A375-GP cells (Dabrafenib-resistant); settings: for viability at 1 µM / viability at 10 µM: Homo sapiens, A-375, 72 h; for viability at 1 µM: read-out: cell viability, A375 GP, 1μΜ; for viability at 10 µM: read-out: cell viability, A375 GP, 10μΜ
[7] = IGR37 Parental, 1μΜ, 72 h, in %
[8] = IGR37 Parental, 10μΜ, 72 h, in %
[9] = 501Mel Parental, 1μΜ, 72 h, in %
[10] = 501Mel Parental, 10μΜ, 72 h, in %

Cc1cc2c(F)c(Oc3ncnn4cc(OC[C@@H](C)O)c(C)c34)ccc2[nH]1 [Brivanib (BMS-540215)]
cell viability (kinase inhibitor library screening) ([1]; 501Mel GP, 1μΜ, in %): 106.3 | cell viability (kinase inhibitor library screening) ([1]; 501Mel GP, 10μΜ, in %): 89.6 | cell viability (kinase inhibitor library screening) (IGR37 cells (parental); IGR37 Parental, 10μΜ, in %): 99.8 | cell viability (kinase inhibitor library screening) ([2]; IGR37 GP, 10μΜ, in %): 95.2 | cell viability (kinase inhibitor library screening) (A375 cells (parental); A375 Parental, 1μΜ, in %): 105.2 | cell viability (kinase inhibitor library screening) (A375 cells (parental); A375 Parental, 10μΜ, in %): 84.3 | cell viability (kinase inhibitor library screening) ([3]; IGR37 XP, 1μΜ, in %): 107.9 | cell viability (kinase inhibitor library screening) ([3]; IGR37 XP, 10μΜ, in %): 73.1 | cell viability (kinase inhibitor library screening) ([4]; 501Mel XP, 1μΜ, in %): 100.3 | cell viability (kinase inhibitor library screening) ([4]; 501Mel XP, 10μΜ, in %): 80.7 | cell viability (kinase inhibitor library screening) (501Mel cells (parental); 501Mel Parental, 1μΜ, in %): 104.3 | cell viability (kinase inhibitor library screening) (501Mel cells (parental); 501Mel Parental, 10μΜ, in %): 93.4 | cell viability (kinase inhibitor library screening) ([5]; A375 XP, 1μΜ, in %): 104.1 | cell viability (kinase inhibitor library screening) ([5]; A375 XP, 10μΜ, in %): 89.7 | cell viability (kinase inhibitor library screening) ([6]; A375 GP, 1μΜ, in %): 103.4 | cell viability (kinase inhibitor library screening) ([6]; A375 GP, 10μΜ, in %): 79.9

COc1cc2ncnc(Nc3cccc(Br)c3)c2cc1OC.Cl [PD153035 HCl]
cell viability, 501Mel GP, 1μΜ ([1]; 501Mel GP, 1μΜ, 72 h, in %): 110.1 | cell viability, 501Mel GP, 10μΜ ([1]; 501Mel GP, 10μΜ, 72 h, in %): 28.5 | cell viability, IGR37 Parental, 1μΜ (IGR37 cells (parental); [7]): 115.8 | cell viability, IGR37 Parental, 10μΜ (IGR37 cells (parental); [8]): 42.8 | cell viability, IGR37 GP, 10μΜ ([2]; IGR37 GP, 10μΜ, 72 h): 73.7% | cell viability, A375 Parental, 1μΜ (A375 cells (parental); A375 Parental, 1μΜ, 72 h, in %): 108.8 | cell viability, A375 Parental, 10μΜ (A375 cells (parental); A375 Parental, 10μΜ, 72 h, in %): 108.3 | cell viability, IGR37 XP, 10μΜ ([3]; IGR37 XP, 10μΜ, 72 h): 30.6% | cell viability, IGR37 XP, 1μΜ ([3]; IGR37 XP, 1μΜ, 72 h, in %): 82.2 | cell viability, 501Mel XP, 1μΜ ([4]; 501Mel XP, 1μΜ, 72 h, in %): 99.4 | cell viability, 501Mel XP, 10μΜ ([4]; 501Mel XP, 10μΜ, 72 h, in %): 16.6 | cell viability, 501Mel Parental, 1μΜ (501Mel cells (parental); [9]): 107.0 | cell viability, 501Mel Parental, 10μΜ (501Mel cells (parental); [10]): 38.0 | cell viability, A375 XP, 1μΜ ([5]; A375 XP, 1μΜ, 72 h, in %): 108.7 | cell viability, A375 XP, 10μΜ ([5]; A375 XP, 10μΜ, 72 h, in %): 97.5 | cell viability, A375 GP, 1μΜ ([6]; A375 GP, 1μΜ, 72 h, in %): 106.0 | cell viability, A375 GP, 10μΜ ([6]; A375 GP, 10μΜ, 72 h, in %): 105.2

CN(C)C/C=C/C(=O)Nc1cc2c(Nc3ccc(F)c(Cl)c3)ncnc2cc1O[C@H]1CCOC1 [Afatinib (BIBW2992)]
viability at 1 µM ([1]; 72 h): 98.8% | viability at 10 µM ([1]; 72 h): 6.2% | viability at 1 µM (IGR37 cells (parental)): 103% | viability at 10 µM (IGR37 cells (parental)): 44.5% | viability at 1 µM [2]: 96.9% | viability at 10 µM [2]: 20.9% | viability at 1 µM (A375 cells (parental)): 100% | viability at 10 µM (A375 cells (parental)): 13.6% | viability at 1 µM [3]: 94.7% | viability at 10 µM [3]: 10% | viability at 1 µM ([4]; 72 h): 88.6% | viability at 10 µM ([4]; 72 h): -0.4% | viability at 1 µM (501Mel cells (parental); 72 h): 102% | viability at 10 µM (501Mel cells (parental); 72 h): 1.5% | viability at 1 µM [5]: 102% | viability at 10 µM [5]: 4.1% | viability at 1 µM [6]: 94.1% | viability at 10 µM [6]: 12.6%

N#CCNC(=O)c1ccc(-c2ccnc(Nc3ccc(N4CCOCC4)cc3)n2)cc1 [Cyt387]
viability at 1 µM ([1]; 72 h): 105% | viability at 10 µM ([1]; 72 h): 50.6% | viability at 1 µM (IGR37 cells (parental)): 103% | viability at 10 µM (IGR37 cells (parental)): 86.1% | viability at 1 µM [2]: 94.2% | viability at 10 µM [2]: 25.5% | viability at 1 µM (A375 cells (parental)): 99.6% | viability at 10 µM (A375 cells (parental)): 48.4% | viability at 1 µM [3]: 106% | viability at 10 µM [3]: 11.7% | viability at 1 µM ([4]; 72 h): 115% | viability at 10 µM ([4]; 72 h): 35.8% | viability at 1 µM (501Mel cells (parental); 72 h): 101% | viability at 10 µM (501Mel cells (parental); 72 h): 60.8% | viability at 1 µM [5]: 95.8% | viability at 10 µM [5]: 64.7% | viability at 1 µM [6]: 94.4% | viability at 10 µM [6]: 43.9%

COc1ccc(-c2ccc3c(N4CCOCC4)nc(N4C[C@@H](C)O[C@@H](C)C4)nc3n2)cc1CO [Ku-0063794]
Cell viability in kinase inhibitor library screening, 501Mel GP, 1μΜ ([1]; 501Mel GP, 1μΜ, 72 h, in %): 56.6 | Cell viability in kinase inhibitor library screening, 501Mel GP, 10μΜ ([1]; 501Mel GP, 10μΜ, 72 h, in %): 13.4 | Cell viability in kinase inhibitor library screening, IGR37 Parental, 1μΜ (IGR37 cells (parental); [7]): 73.4 | Cell viability in kinase inhibitor library screening, IGR37 Parental, 10μΜ (IGR37 cells (parental); [8]): 23.7 | Cell viability in kinase inhibitor library screening, IGR37 GP, 10μΜ ([2]; IGR37 GP, 10μΜ, 72 h): 36.1% | Cell viability in kinase inhibitor library screening, IGR37 GP, 1μΜ ([2]; IGR37 GP, 1μΜ, 72 h, in %): 76.2 | Cell viability in kinase inhibitor library screening, A375 Parental, 10μΜ (A375 cells (parental); A375 Parental, 10μΜ, 72 h): 24.0 | Cell viability in kinase inhibitor library screening, A375 Parental, 1μΜ (A375 cells (parental); A375 Parental, 1μΜ, 72 h): 63.8 | Cell viability in kinase inhibitor library screening, IGR37 XP, 10μΜ ([3]; IGR37 XP, 10μΜ, 72 h): 12.3% | Cell viability in kinase inhibitor library screening, IGR37 XP, 1μΜ ([3]; IGR37 XP, 1μΜ, 72 h, in %): 68.5 | Cell viability in kinase inhibitor library screening, 501Mel XP, 1μΜ ([4]; 501Mel XP, 1μΜ, 72 h, in %): 47.2 | Cell viability in kinase inhibitor library screening, 501Mel XP, 10μΜ ([4]; 501Mel XP, 10μΜ, 72 h, in %): 6.9 | Cell viability in kinase inhibitor library screening, 501Mel Parental, 1μΜ (501Mel cells (parental); [9]): 71.5 | Cell viability in kinase inhibitor library screening, 501Mel Parental, 10μΜ (501Mel cells (parental); [10]): 16.9 | Cell viability in kinase inhibitor library screening, A375 XP, 1μΜ ([5]; A375 XP, 1μΜ, 72 h): 54.3 | Cell viability in kinase inhibitor library screening, A375 XP, 10μΜ ([5]; A375 XP, 10μΜ, 72 h): 19.7 | Cell viability in kinase inhibitor library screening, A375 GP, 1μΜ ([6]; A375 GP, 1μΜ, 72 h): 63.9 | Cell viability in kinase inhibitor library screening, A375 GP, 10μΜ ([6]; A375 GP, 10μΜ, 72 h): 20.8

CCc1cnn2c(NCc3ccc[n+]([O-])c3)cc(N3CCCC[C@H]3CCO)nc12 [Dinaciclib (SCH727965)]
cell viability (kinase inhibitor library screening) ([1]; 501Mel GP, 1μΜ, 72 h): 0.636% | cell viability (kinase inhibitor library screening) ([1]; 501Mel GP, 10μΜ, 72 h): 0.422% | cell viability (kinase inhibitor library screening) (IGR37 cells (parental); IGR37 Parental, 1μΜ, 72 h): 4.4% | cell viability (kinase inhibitor library screening) (IGR37 cells (parental); IGR37 Parental, 10μΜ, 72 h): 2.8% | cell viability (kinase inhibitor library screening) ([2]; IGR37 GP, 1μΜ, 72 h): 4.4% | cell viability (kinase inhibitor library screening) ([2]; IGR37 GP, 10μΜ, 72 h): 2.3% | cell viability (kinase inhibitor library screening) (A375 cells (parental); A375 Parental, 10μΜ, 72 h): 10.7% | cell viability (kinase inhibitor library screening) (A375 cells (parental); A375 Parental, 1μΜ, 72 h): 10.8% | cell viability (kinase inhibitor library screening) ([3]; IGR37 XP, 1μΜ, 72 h): 3.1% | cell viability (kinase inhibitor library screening) ([3]; IGR37 XP, 10μΜ, 72 h): 2.6% | cell viability (kinase inhibitor library screening) ([4]; 501Mel XP, 1μΜ, 72 h): 0.85% | cell viability (kinase inhibitor library screening) ([4]; 501Mel XP, 10μΜ, 72 h): 0.249% | cell viability (kinase inhibitor library screening) (501Mel cells (parental); 501Mel Parental, 1μΜ, 72 h): 1.5% | cell viability (kinase inhibitor library screening) (501Mel cells (parental); 501Mel Parental, 10μΜ, 72 h): 1.3% | cell viability (kinase inhibitor library screening) ([5]; A375 XP, 1μΜ, 72 h): 11.5% | cell viability (kinase inhibitor library screening) ([5]; A375 XP, 10μΜ, 72 h): 8.1% | cell viability (kinase inhibitor library screening) ([6]; A375 GP, 1μΜ, 72 h): 10.0% | cell viability (kinase inhibitor library screening) ([6]; A375 GP, 10μΜ, 72 h): 6.1%
